In brackets after ≈: the same amount, converted by molar mass.
Columns and labels:
[1] = tested on: AG033 P. aer. APH(3′)-II AAC(6′)-I; assay: Antibacterial activity, clinical isolate AG033; format: cell-based; set-up: unit not given here
Outline: (§1)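 Compounds are serially diluted in liquid medium in microplates, bacteria are added, and the lowest concentration preventing growth is recorded as the MIC (CLSI procedure).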

[2] = tested on: clinical isolates carrying APH(3′)-VI; assay: MIC broth microdilution, APH(3′)-VI; format: cell-based; conditions: IMM Univ. Zurich
Description: (§2) Minimal inhibitory concentrations (MIC) have been determined by broth microdilution assays (CLSI. Methods for Dilution Antimicrobial Susceptibility Tests for Bacteria That Grow Aerobically; Approved Standard—Tenth Edition. CLSI document M07-A10. Wayne, Pa.: Clinical and Laboratory Standards Institute; 2015.).
(§3) Minimal inhibitory concentrations (MICs, […]) against clinical isolates from Institute of Medical Microbiology, Univ. Zurich, and the IC50 values for bacterial, human mitochondrial and human cytosolic ribosomes are indicated.

[3] = tested on: Engineered E. coli AG103 armA; assay: Activity against G1405-methylated 16S-rRNA, E. coli AG103 armA; format: cell-based
Outline: (§4)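 Susceptibility was measured as minimal inhibitory concentration using a standardized broth microdilution protocol (CLSI document M07-A10).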

AG038 MRSA = assay: Antibacterial activity, clinical isolate AG038; format: cell-based; set-up: unit not given here
Outline: as §1

AG163 E. coli APH(3′)-I = assay: Antibacterial activity, clinical isolate AG163; format: cell-based
Description: as §2
Table 4 and 5 show the antibacterial activity of the compounds of the invention against bacterial reference strains (table 4) and against representative clinical isolates (table 5).

AG173 E. coli AAC(3)-IV = assay: Antibacterial activity, clinical isolate AG173; format: cell-based
Outline: as §1

[4] = tested on: Engineered E. coli pH426 rmtC; assay: Activity against G1405-methylated 16S-rRNA, E. coli pH426 rmtC; format: cell-based
Outline: as §4

AG001 E. coli WT = assay: Antibacterial activity, clinical isolate AG001; format: cell-based; set-up: unit not given here
Outline: as §1

AG031 P. aer. APH(3′)-II = assay: Antibacterial activity, clinical isolate AG031; format: cell-based; set-up: unit not given here
Outline: as §1

AG055 E. coli WT = assay: Antibacterial activity, clinical isolate AG055; format: cell-based; set-up: unit not given here
Outline: as §1

[5] = tested on: Engineered E. coli pH427 rmtF; assay: Activity against G1405-methylated 16S-rRNA, E. coli pH427 rmtF; format: cell-based
Outline: as §4

AG003 E. coli AAC(3)-II = assay: Antibacterial activity, clinical isolate AG003; format: cell-based
Outline: as §1

[6] = tested on: clinical isolates carrying APH(3′)-III; assay: MIC broth microdilution, APH(3′)-III; format: cell-based; conditions: IMM Univ. Zurich
Description: as §2, §3

[7] = tested on: SZ380, Mycobacterium smegmatis; assay: MIC reference strain SZ380; format: cell-based; conditions: Mycolicibacterium smegmatis, reference strain; read-out: MIC SZ380 M. smegmatis
Outline: (§5)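 Compounds serially diluted in broth, bacteria added, growth inhibition scored; the lowest inhibitory concentration is taken as MIC, following CLSI procedures.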

bacterial ribosomes = assay: in-vitro translation assay, bacterial ribosomes; format: biochemical
Outline: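 Inhibitory potency was determined as IC50 in in-vitro translation systems based on bacterial ribosomes, human chimeric (mitochondrial-type) ribosomes or rabbit reticulocyte (cytosolic) ribosomes.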

[8] = tested on: AG215, Klebsiella pneumonia; assay: MIC reference strain AG215; format: cell-based; conditions: Klebsiella pneumoniae, reference strain; read-out: MIC AG215 K. pneumonia
Outline: as §5

[9] = tested on: AG220, Pseudomonas aeruginosa ATCC27853; assay: MIC reference strain AG220; format: cell-based; conditions: Pseudomonas aeruginosa, ATCC27853, reference strain ATCC27853; read-out: MIC AG220 P. aeruginosa
Outline: as §5

AG032 P. aer. APH(3′)-II = assay: Antibacterial activity, clinical isolate AG032; format: cell-based; set-up: unit not given here
Outline: as §1

[10] = tested on: clinical isolates carrying AAC(3)-IV; assay: MIC broth microdilution, AAC(3)-IV; format: cell-based; conditions: clinical isolates, IMM Univ. Zurich; AAC(3)-IV; read-out: MIC AAC(3)-IV
Outline: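 Clinical isolates supplied by the Zurich Institute of Medical Microbiology were tested for MIC (μg/ml) using CLSI M07-A10 broth microdilution.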

[11] = tested on: AG290, Enterobacter cloacae; assay: MIC reference strain AG290; format: cell-based; conditions: Enterobacter cloacae; reference strain; read-out: MIC AG290 E. cloacae
Outline: as §5

[12] = tested on: clinical isolates carrying APH(3′)-I; assay: MIC broth microdilution, APH(3′)-I; format: cell-based; conditions: IMM Univ. Zurich
Description: as §2, §3

[13] = tested on: clinical isolates carrying APH(3′)-II; assay: MIC broth microdilution, APH(3′)-II; format: cell-based; conditions: clinical isolates, IMM Univ. Zurich; APH(3′)-II; read-out: MIC APH(3′)-II
Description: as §2, §3

ATCC19977 M. abcessus = assay: MIC reference strain ATCC19977; format: cell-based; conditions: read-out: MIC ATCC19977 M. abcessus
Outline: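 Susceptibility was tested per CLSI aerobic dilution protocol using microbroth format, with the MIC taken as the end point.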

[14] = tested on: human mitochondrial ribosomes; assay: in-vitro translation assay, human mitochondrial (human chimeric) ribosomes; format: biochemical
Outline: (§6)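 Translation inhibition is measured in vitro with isolated ribosomes, and IC50 derived. The human cytosolic values actually use rabbit reticulocyte ribosomes, and the mitochondrial values use human chimeric ribosomes.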

[15] = tested on: AG212, Escherichia coli ATCC25922; assay: MIC reference strain AG212; format: cell-based; conditions: Escherichia coli; reference strain ATCC25922; read-out: MIC AG212 E. coli
Outline: as §5

[16] = tested on: Engineered E. coli pH424 armA; assay: Activity against G1405-methylated 16S-rRNA, E. coli pH424 armA; format: cell-based
Outline: as §4

[17] = tested on: AG225, Acinetobacter baumannii pittii; assay: MIC reference strain AG225; format: cell-based; conditions: Acinetobacter baumannii, reference strain; read-out: MIC AG225 A. baumannii
Outline: as §5

[18] = tested on: Engineered E. coli pH430 WT; assay: Activity, engineered E. coli pH430 WT; format: cell-based; conditions: wild type
Outline: as §4

[19] = tested on: AG042 MRSA AAC(6′)-I ANT(4′)-I APH(2′); assay: Antibacterial activity, clinical isolate AG042; format: cell-based; set-up: unit not given here
Outline: as §1

[20] = tested on: human cytosolic ribosomes; assay: in-vitro translation assay, human cytosolic ribosomes; format: biochemical
Outline: as §6

[21] = tested on: AG039 MRSA AAC(6′)-I ANT(4′)-I; assay: Antibacterial activity, clinical isolate AG039; format: cell-based
Outline: as §1

[22] = tested on: Engineered E. coli pH425 rmtB; assay: Activity against G1405-methylated 16S-rRNA, E. coli pH425 rmtB; format: cell-based
Outline: as §4

[23] = tested on: APH(3′, 5″) resistance determinant; assay: Susceptibility to the APH(3′, 5″) resistance determinant; format: cell-based
Description: as §2
The introduction of a formamido group results in compounds that display increased selectivity for the bacterial ribosome over the mitochondrial (wild type and A1555G mutant) ribosomes, predictive of reduced ototoxicity.

SMILES	Antibacterial activity AG033 P. aer. APH(3′)-II AAC(6′)-I [1]	MIC [2] [µg/mL]	Activity E. coli AG103 armA [3]	Antibacterial activity AG038 MRSA (AG038 MRSA)	Antibacterial activity AG163 E. coli APH(3′)-I (AG163 E. coli APH(3′)-I)	Antibacterial activity AG173 E. coli AAC(3)-IV (AG173 E. coli AAC(3)-IV)	Activity E. coli pH426 rmtC [4]	Antibacterial activity AG001 E. coli WT (AG001 E. coli WT)	Antibacterial activity AG031 P. aer. APH(3′)-II (AG031 P. aer. APH(3′)-II)	Antibacterial activity AG055 E. coli WT (AG055 E. coli WT)	Activity E. coli pH427 rmtF [5]	Antibacterial activity AG003 E. coli AAC(3)-II (AG003 E. coli AAC(3)-II)	MIC [6] [µg/mL]	IC50 (bacterial ribosomes) [µM]	MIC [8] [µg/mL]	MIC [9] [µg/mL]	Antibacterial activity AG032 P. aer. APH(3′)-II (AG032 P. aer. APH(3′)-II)	MIC [10] [µg/mL]	MIC [11] [µg/mL]	MIC [12] [µg/mL]	further results
CNC1C(OC2OC(CO)C(N)C(O)C2O)OC2CC(N)C(OC3C(N)CC(N)C(O)C3OC3OC(CO)C(OCCO)C3O)OC2C1O [DC178, 5-O-β-[3′″-O-(2-Hydroxyethyl)-D-ribofuranosyl] apramycin]	>32	16 (≈ 22.4 µM)	2	16-32	8	32-64	8	32	>32	16	8	16	2 (≈ 2.79 µM)	0.22	4	> 64	>32	> 32	8	> 64	MIC [7]: 2 µg/mL; MIC [13]: 8 µg/mL (≈ 11.2 µM); MIC (ATCC19977 M. abcessus): 32 µg/mL (≈ 44.7 µM); IC50 [14]: 647 µM; MIC [15]: 8 µg/mL; Activity E. coli pH424 armA [16]: 2; MIC [17]: 16 µg/mL; Activity E. coli pH430 WT [18]: 8; Antibacterial activity AG042 MRSA AAC(6′)-I ANT(4′)-I APH(2′) [19]: 32; IC50 [20]: > 500 µM; Antibacterial activity AG039 MRSA AAC(6′)-I ANT(4′)-I [21]: 32; Activity E. coli pH425 rmtB [22]: 8
CNC1C(OC2OC(CO)C(N)C(O)C2O)OC2CC(N)C(OC3C(N)CC(N)C(O)C3OC3OC(CNC=O)C(OCCN)C3O)OC2C1O [DC186, 5-β-[3-O-(2-Aminoethyl)-5-deoxy-5-formamido-D-ribofuranosyl] apramycin]	64	2 (≈ 2.7 µM)	0.5-1	4	2	32	4	2	16	4	2	2	0.25 (≈ 0.337 µM)	0.06	1	16 to 32	32	> 32	1 to 2	2 (≈ 2.7 µM)	susceptibility to the APH(3′, 5″) resistance determinant [23]: circumvent this problem; MIC [13]: 2 µg/mL (≈ 2.7 µM); MIC (ATCC19977 M. abcessus): 8 µg/mL (≈ 10.8 µM); IC50 [14]: 69 µM; MIC [15]: 2 to 4 µg/mL; Activity E. coli pH424 armA [16]: 2; MIC [17]: 8 µg/mL; Activity E. coli pH430 WT [18]: 2; Antibacterial activity AG042 MRSA AAC(6′)-I ANT(4′)-I APH(2′) [19]: 4-8; IC50 [20]: 105 µM; Antibacterial activity AG039 MRSA AAC(6′)-I ANT(4′)-I [21]: 4-8; Activity E. coli pH425 rmtB [22]: 2

From patent US11485751B2, “Apramycin derivatives” (WAYNE STATE UNIVERSITY, priority 2017, dated 2022)
